For one assay, the system named is VEGF UTRs. In words: luciferase reporter inhibition in B9 (VEGF 5' and 3' UTRs) versus B12 (control UTRs) stable cell lines. Conditions: about 10^-1 nM to about 10^4 nM. The format is cell-based, human. How it is done: A monocistronic reporter construct (pLuc/vegf5′+3′UTR) is under the transcriptional control of the CMV promoter and contains the VEGF 5′ UTR driving the luciferase reporter upstream of the VEGF 3′UTR. Stable cell lines are generated by transfecting 293 cells with the pLuc/vegf5′+3′UTR construct. A stable cell line is cultured under hygromycin B selection to create clonal cell lines consistent with protocols well known in the art. After two weeks of selection, clonal cell lines are screened for luciferase activity. The luciferase activity of several clonal cell lines (hereafter “Clones”) are compared and normalized against total protein content. Clones are maintained under hygromycin B selection for more than three months with intermittent monitoring of luciferase activity. Clones are stable and maintain a high level of luciferase expression. Many Clones, for example, about twenty, may be compared to each other with respect to luciferase activity. […] Particular parameters for Clones are studied prior to selection for use in post-transcriptional, high-throughput screening (HTS). […]
Chemical libraries in excess of 150,000 compounds are screened by HTS with a Clone containing the monocistronic reporter construct, pLuc/vegf5′+3′UTR. […] Data is analyzed as a normal distribution, which is apparent from graphical and statistical analysis of skewness and kurtosis. […]

The test system of the next assay is FGF-2 and IGF-1. Put plainly: ELISA assays for expression of angiogenesis factors in HeLa cells. The format is cell-based. Conditions: Homo sapiens, read-out: EC50 for inhibition of all these cytokines. Here is the method:
Compounds that target multiple angiogenesis factors (including VEGF) for the treatment of cancers are also identifiable. Several targets are used for these purposes, including TNF-α, FGF-2, G-CSF, IGF-1, PDGF, and HIF-1α. ELISA assays analyze levels of expression of these factors using commercially available kits from R&D Systems (Minneapolis, Minn.). UTR-specific HTS identified compounds are tested for their ability to inhibit the expression of a subset of these proteins, including FGF-2 and IGF-1 in HeLa cells.

These results are taken from US9476870B2, “Methods and agents for screening for compounds capable of modulating gene expression” (PTC Therapeutics, Inc., priority 2003, dated 2016).

SMILES strings stand for the structures.

As to `COc1ccc(C[C@H](N)C(=O)N[C@H]2[C@@H](O)[C@H](n3cnc4c(N(C)C)ncnc43)O[C@@H]2CO)cc1` [puromycin], in the assay on VEGF UTRs, the “difference in inhibition of luciferase expression between B9 and B12 cell lines” value is reported as “No difference”. In addition, in the assay with FGF-2 and IGF-1, the EC50 was in the range of 0.2 to 2 µM.

As usually defined, the EC50 is the concentration needed to bring the measured effect to its halfway point.
